Results from patent US20240103005A1, “N-ACRYLOYLINDOLES AND METHODS OF USE” (The University of Hong Kong, priority 2022, published 2024).

Tests used:
[1] = test system: HepG2 cell lysates; assay: MS-based ABPP to identify liganded cysteines in HepG2 cell lysates; type: biochemical, human; conditions: 10 μM, 1 h
Method: MS-Based ABPP Experiments to Identify Liganded Cysteines in HepG2 Cell Lysates by NAIA-5 or IAA.
HepG2 cells were lysed in PBS by sonication. After BCA assay and protein normalization, HepG2 cell lysates in PBS (2 mg/mL, 2 mL) were incubated with NAIA-5 and IAA (10 μM), respectively, at room temperature for 1 h with vortexing. Then, the samples were incubated with a master mix solution for CuAAC reaction, containing CuSO4, TBTA, DTB-PEG-azide and TECP (final concentrations are 1 mM, 100 μM, 100 μM and 1 mM respectively). After incubation at room temperature for 1 h with vortexing, pre-chilled acetone (12 mL) was added to the samples and proteins were allowed to precipitate out by storing at −20° C. overnight. The samples were centrifuged at 5,000 g at 4° C. for 10 min, and the supernatant was discarded. The protein pellets labeled by NAIA-5 and IAA were then combined and washed with pre-chilled methanol twice. The protein pellets were then re-dispersed in 1.2% SDS in PBS (w/v), followed by heating at 80° C. for 5 min. Any insoluble solids were discarded by centrifugation at 6,500 g for 5 min, and the supernatant were transferred to PBS solution containing Pierce™ Streptavidin Agarose beads (20349; Thermo Scientific) with final concentration of SDS equal to 0.2% (w/v). The samples and beads were incubated at 4° C. with rotation overnight. […]

[2] = test system: HepG2 cells; assay: Gel-based ABPP, Cys labeling in live HepG2 cells; type: cell-based; conditions: 10 μM, three incubation time intervals
Method: In-Gel Fluorescence for Visualizing Cys Labeling by NAIAs and IAA in Live Cells
231MFP or HepG2 cells were grown in 10-cm plates in complete medium. At ca. 80% confluency, the cells were treated with DMSO solvent control, NAIA-4, NAIA-5, or IAA at indicated concentrations in complete medium for indicated time interval. The cells were then washed by DPBS and lysed by probe sonication in DPBS. Cell debris were removed by centrifugation at 1,000 g for 5 min. Protein concentration of the lysates was determined by BCA assay, and the lysates were diluted to 2 mg/mL by DPBS. 50 μL of the lysates were labeled with azide-fluor 545 by CuAAC according to the procedures described above. The samples were then added with 4× reducing Laemmli SDS sample loading buffer, boiled at 90° C. for 5 min, and separated by molecular weight on precast 4-20% TGX gels and scanned by ChemiDoc MP for measuring in-gel fluorescence. After that, the gel was stained with SimplyBlue™ SafeStain as described above, washed and scanned by ChemiDoc MP for imaging the blue staining.
In view of the success in labeling cysteines in cell lysates, we then proceeded to apply NAIA for capturing reactive cysteines in live cells. […] After protein assay and normalization, the protein samples were subjected to click reaction with azide-fluor 545, followed by SDS-PAGE and in-gel fluorescence measurement. […]

`C#CCCCCNC(=O)COc1ccc2c(ccn2C(=O)C=C)c1` [NAIA-5] was tested, and the “off-target labeling onto other amino acids” value [1] was “less undesired off-target labeling onto other amino acids as compared to IAA” and the “cysteine labeling in live cells (in-gel fluorescence) compared with IAA” value [2] was “better cysteine labeling than IAA at 10 μM for all the three incubation time intervals”.
